Earlier results as cited in US20260373185A1, “METHODS FOR SEQUENTIALLY ADMINISTERING TAS-102 AND BCL-2 INHIBITOR FOR CANCER TREATMENT” (Health Research, Inc., priority 2023, published 2026).
pKi: −log10 of the molar value.

Legend:
[1] = molecular target: BCL-w; conditions: cell-free assays
[2] = tested on: MCL-1
[3] = tested on: A1; conditions: relative to BCL-xL, BCL-2 and BCL-w
[4] = tested on: p53-deficient cancers; conditions: current DNA-damaging drugs

SMILES: CC1(C)CCC(c2ccc(Cl)cc2)=C(CN2CCN(c3ccc(C(=O)NS(=O)(=O)c4ccc(N[C@H](CCN5CCOCC5)CSc5ccccc5)c(S(=O)(=O)C(F)(F)F)c4)cc3)CC2)C1 [Navitoclax]
- pKi [1]: ≥ 9.00
- binding to Mcl-1 ([2]; relative to BCL-xL, BCL-2 and BCL-w): binds more weakly
- binding to A1 [3]: binds more weakly

SMILES: CC1(C)CCC(CN2CCN(c3ccc(C(=O)NS(=O)(=O)c4ccc(NCC5CCOCC5)c([N+](=O)[O-])c4)c(Oc4cnc5[nH]ccc5c4)c3)CC2)=C(c2ccc(Cl)cc2)C1 [Venetoclax]
- activity to MCL-1 ([2]; cell-free assays): no activity

SMILES: N.N.[Cl][Pt][Cl] [cisplatin]
- toxicity by p53 status [4]: toxicity regardless of p53 status

SMILES: Nc1ccn([C@@H]2O[C@H](CO)[C@@H](O)C2(F)F)c(=O)n1 [gemcitabine]
- toxicity by p53 status [4]: toxicity regardless of p53 status
